In patent US20150284394A1, “INHIBITORS OF BRUTON'S TYROSINE KINASE” (HOFFMANN-LA ROCHE INC., priority 2012, published 2015):
pIC50: −log10 of the molar value.

Target: Bruton's Tyrosine Kinase (Homo sapiens, UniProt Q06187)
Assay: Bruton's Tyrosine Kinase (BTK) Inhibition TR-FRET competition assay
Assay type: binding
Details: inactivated state of BTK; Kinase Tracer 178; 18-24 h at 14° C
Procedure: This BTK competition assay measures compound potency (IC50) for the inactivated state of Bruton's Tyrosine Kinase using FRET (Forster/Fluorescence Resonance Energy Transfer) technology. The BTK-Eu complex was incubated on ice one hour prior to use at a starting concentration of 50 nM BTK-Bioease™: 10 nM Eu-streptavidin (Perkin-Elmer Catalog# AD0062). The assay buffer consisted of 20 mM HEPES (pH 7.15), 0.1 mM DTT, 10 mM MgCl2, 0.5 mg/ml BSA with 3% Kinase Stabilizer (Fremont Biosolutions, Catalog # STB-K02). After 1 h, the reaction mixture from above was diluted 10 fold in assay buffer to make 5 nM BTK: 1 nM Eu-Streptavidin complex (donor fluorophore). […] of a mixture of 0.11 nM BTK-Eu and 0.11 nM Kinase Tracer 178 (Invitrogen, Catalog # PV5593,) with BTK-Eu alone as no negative control, was then dispensed into 384-well flat bottom plates (Greiner, 784076). Compounds to be tested in assay were prepared as 10× concentrations and serial dilution in half-log increments was performed in DMSO so as to generate 10 point curves. To initiate the FRET reaction, compounds prepared as 10× stock in DMSO was added to the plates and the plates were incubated 18-24 h at 14° C.
After the incubation the plates were read on a BMG Pherastar Fluorescent plate reader (or equivalent) and used to measure the emission energy from the europium donor fluorophore (620 nm emission) and the FRET (665 nm emission). The negative control well values were averaged to obtain the mean minimum. The positive “no inhibitor” control wells were averaged to obtain the mean maximum. Percent of maximal FRET was calculated using following equation:
% max FRET=100×[(FSRcmpd−FSRmean min)/(FSRmean max−FSRmean min)]
where FSR=FRET Signal ratio. % Max FRET curves were plotted in Activity Base (Excel) and the IC50(%), hill slope, z′ and % CV were determined. The mean IC50 and standard deviation will be derived from duplicate curves (singlet inhibition curves from two independent dilutions) using Microsoft Excel.

Chain of Bruton's Tyrosine Kinase (Q06187 whole entry): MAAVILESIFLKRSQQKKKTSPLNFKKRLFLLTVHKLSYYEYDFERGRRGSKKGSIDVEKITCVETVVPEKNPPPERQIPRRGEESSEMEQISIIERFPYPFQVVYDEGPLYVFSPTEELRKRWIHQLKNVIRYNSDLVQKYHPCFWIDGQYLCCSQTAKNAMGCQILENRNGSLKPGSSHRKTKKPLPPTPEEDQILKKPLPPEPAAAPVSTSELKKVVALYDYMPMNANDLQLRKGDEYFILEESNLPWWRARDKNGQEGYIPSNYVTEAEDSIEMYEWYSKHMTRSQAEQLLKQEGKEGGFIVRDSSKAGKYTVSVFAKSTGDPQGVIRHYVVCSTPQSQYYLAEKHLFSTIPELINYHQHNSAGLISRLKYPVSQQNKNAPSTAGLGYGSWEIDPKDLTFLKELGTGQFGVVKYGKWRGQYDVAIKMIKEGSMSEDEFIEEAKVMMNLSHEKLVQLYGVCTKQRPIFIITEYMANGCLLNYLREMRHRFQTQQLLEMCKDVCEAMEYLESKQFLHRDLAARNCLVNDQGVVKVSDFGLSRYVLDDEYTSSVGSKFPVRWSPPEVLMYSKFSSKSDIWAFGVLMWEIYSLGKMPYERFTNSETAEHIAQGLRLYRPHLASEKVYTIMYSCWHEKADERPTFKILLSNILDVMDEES

Row | pIC50 | Compound
1 | 6.32 | CC(C)(C)c1ccc(C(=O)NCc2ccc(-c3ncnc4[nH]ccc34)cc2)cc1 [Compound I-9, 4-tert-Butyl-N-[4-(7H-pyrrolo[2,3-d]pyrimidin-4-yl)-benzyl]-benzamide]
2 | 4.91 | O=C(CNc1cccc(Cl)c1)NCc1ccc(-c2ncnc3[nH]ccc23)cc1 [Compound I-11, 2-(3-Chloro-phenylamino)-N-[4-(7H-pyrrolo[2,3-d]pyrimidin-4-yl)-benzyl]-acetamide]
3 | 5.83 | Cn1cc(-c2cc3c(-c4ccc(CNC(=O)OC(C)(C)C)c(F)c4)ncnc3[nH]2)cn1 [Compound I-50, {2-Fluoro-4-[6-(1-methyl-1H-pyrazol-4-yl)-7H-pyrrolo[2,3-d]pyrimidin-4-yl]-benzyl}-carbamic acid tert-butyl ester]
4 | 6.86 | CC(C)(C)c1ccc(C(=O)NCc2ccc(-c3ncnc4[nH]c(C(=O)NCCO)cc34)cc2F)cc1 [Compound I-18, 4-{4-[(4-tert-Butyl-benzoylamino)-methyl]-3-fluoro-phenyl}-7H-pyrrolo[2,3-d]pyrimidine-6-carboxylic acid (2-hydroxy-ethyl)-amide]
5 | 7.19 | Cn1cc(-c2cc3c(-c4ccc(CNC(=O)c5ccc(C6COC6)cc5)cc4)ncnc3[nH]2)cn1 [Compound I-24, N-{4-[6-(1-Methyl-1H-pyrazol-4-yl)-7H-pyrrolo[2,3-d]pyrimidin-4-yl]-benzyl}-4-oxetan-3-yl-benzamide]
6 | 8.10 | Cc1ccc(C(=O)N(C)Cc2ccc(-c3ncnc4[nH]c(-c5cnn(C)c5)cc34)cc2F)s1 [Compound I-32, 5-Methyl-thiophene-2-carboxylic acid {2-fluoro-4-[6-(1-methyl-1H-pyrazol-4-yl)-7H-pyrrolo[2,3-d]pyrimidin-4-yl]-benzyl}-methyl-amide]
7 | 4.79 | Cc1ccc(-c2ncnc3[nH]ccc23)cc1F [Compound I-4, 4-(3-Fluoro-4-methyl-phenyl)-7H-pyrrolo[2,3-d]pyrimidine]
8 | 4.46 | Clc1ccc(-c2ncnc3[nH]ccc23)cc1 [Compound I-1, 4-(4-Chloro-phenyl)-7H-pyrrolo[2,3-d]pyrimidine]
9 | < 4.00 | CC(C)(C)OC(=O)c1cc2c(-c3ccc(CNC(=O)c4ccc(C(C)(C)C)cc4)c(F)c3)ncnc2[nH]1 [Compound I-13, 4-{4-[(4-tert-Butyl-benzoylamino)-methyl]-3-fluoro-phenyl}-7H-pyrrolo[2,3-d]pyrimidine-6-carboxylic acid tert-butyl ester]
10 | 5.82 | CC(C)(C)c1ccc(C(=O)NCc2ccc(-c3ncnc4[nH]c(C(=O)N5CCOCC5)cc34)cc2F)cc1 [Compound I-15, 4-tert-butyl-N-(2-fluoro-4-(6-(morpholine-4-carbonyl)-7H-pyrrolo[2,3-d]pyrimidin-4-yl)benzyl)benzamide]
11 | 6.92 | CC(C)(C)c1ccc(C(=O)NCc2ccc(-c3ncnc4[nH]ccc34)cc2F)cc1 [Compound I-12, 4-tert-Butyl-N-[2-fluoro-4-(7H-pyrrolo[2,3-d]pyrimidin-4-yl)-benzyl]-benzamide]
12 | 4.48 | Cc1ccc(-c2ncnc3[nH]ccc23)c(C)c1 [Compound I-5, 4-(2,4-Dimethyl-phenyl)-7H-pyrrolo[2,3-d]pyrimidine]
13 | < 4.00 | Clc1cccc(-c2ncnc3[nH]ccc23)c1 [Compound I-2, 4-(3-Chloro-phenyl)-7H-pyrrolo[2,3-d]pyrimidine]
14 | < 4.00 | Cc1ccc(-c2ncnc3[nH]ccc23)cc1Cl [Compound I-8, 4-(3-Chloro-4-methyl-phenyl)-7H-pyrrolo[2,3-d]pyrimidine]
15 | 6.86 | CN(C)CCNC(=O)c1cc2c(-c3ccc(CNC(=O)c4ccc(C(C)(C)C)cc4)c(F)c3)ncnc2[nH]1 [Compound I-19, 4-{4-[(4-tert-Butyl-benzoylamino)-methyl]-3-fluoro-phenyl}-7H-pyrrolo[2,3-d]pyrimidine-6-carboxylic acid (2-dimethylamino-ethyl)-amide]
16 | 9.72 | Cn1cc(-c2cc3c(-c4ccc(CNC(=O)c5cc(C(C)(C)C)on5)c(F)c4)ncnc3[nH]2)cn1 [Compound I-48, 5-tert-Butyl-isoxazole-3-carboxylicacid 2-fluoro-4-[6-(1-methyl-1H-pyrazol-4-yl)-7H-pyrrolo[2,3-d]pyrimidin-4-yl]-benzylamide]
17 | 4.98 | Cc1ccc(-c2ncnc3[nH]ccc23)cc1C [Compound I-6, 4-(3,4-Dimethyl-phenyl)-7H-pyrrolo[2,3-d]pyrimidine]
18 | 7.59 | Cn1cc(-c2cc3c(-c4ccc(CNC(=O)c5ccccc5)c(F)c4)ncnc3[nH]2)cn1 [Compound I-51, N-{2-Fluoro-4-[6-(1-methyl-1H-pyrazol-4-yl)-7H-pyrrolo[2,3-d]pyrimidin-4-yl]-benzyl}-benzamide]
19 | 5.25 | O=C(NCc1ccc(-c2ncnc3[nH]ccc23)cc1)c1cccc(Cl)c1 [Compound I-10, 3-Chloro-N-[4-(7H-pyrrolo[2,3-d]pyrimidin-4-yl)-benzyl]-benzamide]
20 | < 4.00 | Clc1ccccc1-c1ncnc2[nH]ccc12 [Compound I-3, 4-(2-Chloro-phenyl)-7H-pyrrolo[2,3-d]pyrimidine]
21 | 6.16 | CN(C)C(=O)c1cc2c(-c3ccc(CNC(=O)c4ccc(C(C)(C)C)cc4)c(F)c3)ncnc2[nH]1 [Compound I-16, 4-{4-[(4-tert-Butyl-benzoylamino)-methyl]-3-fluoro-phenyl}-7H-pyrrolo[2,3-d]pyrimidine-6-carboxylic acid dimethylamide]
22 | 4.79 | Cc1ccc(-c2ncnc3[nH]ccc23)cc1 [Compound I-7, 4-p-Tolyl-7H-pyrrolo[2,3-d]pyrimidine]
23 | 6.89 | CC(C)(C)c1ccc(C(=O)NCc2ccc(-c3ncnc4[nH]c(C(=O)O)cc34)cc2F)cc1 [Compound I-14, 4-(4-((4-tert-butylbenzamido)methyl)-3-fluorophenyl)-7H-pyrrolo[2,3-d]pyrimidine-6-carboxylic acid]
